According to patent publication US8580579B2, “Hydrophilic and lipophilic rhodamines for labelling and imaging” (Max-Planck-Gesellschaft zur Foerderung der Wissenschaften …, priority 2009, dated 2013):
“Also recorded” adds a separate entry of the source. Read-outs that look alike come from different tables or passages of the source.

What was measured:
[1] = cited from earlier work
[2] = Spectral properties of commercially available dyes (Table 1); format: physicochemical; details: commercial dyes
[3] = cited from earlier work; remark: listed apart in the source
[4] = Photostability order of commercial dyes; format: physicochemical; details: derived from the references to Table 1
Description: Cytochem. 2003, 51, 1699-1712], and only in 2007 its structure has been reported [B. Agnew, K. R. Gee, T. G. Nyberg (Invitrogen), US Pat. 2007/0249014]. Along with rhodamines, the following substance classes were considered as leads for developing of the new fluorescent dyes: BODIPY® derivatives (represented by BODYPY® 630/650 in FIG. 4), carbopyronines (Atto 635 and 647), cyanine dyes (Cy® 5 and Alexa 647), structurally related hybrids of cyanine dyes and benzopyranes (DY-630/635/650) and oxazines (Evoblue 30). BODIPY® derivatives have a substantial drawback: sometimes, fluorescence intensity of their bioconjugates is not directly proportional to a number of labelled sites [R. P. Haugland, A Guide to Fluorescent Probes and Labelling Technologies, Invitrogen Corp., Carlsbad, 2005, p. 53]. Moreover, it is difficult to chemically modify a BODIPY residue in such a way that it becomes water-soluble and more photostable. Carbopyronines have been extensively studied by Drexhage et al. [e.g. A. Zilles, J. Arden-Jacob, K.-H. Drexhage, N. U. Kemnitzer, M. Hammers-Schneider (Atto-tec GmbH), WO 2005/003086 (13 Jan. 2005)]. The carbopyronine dye Atto 647N has been widely used for labelling in many “nanoscopic” studies. Quite recently first STED images of the living cells were recorded at a rate of 28 frames per seconds using this dye [V. Westphal, S. O. Rizzoli, M. A. Lauterbach, D. Kamin, R. Jahn, S. W. Hell, Science 2008, 320, 246-249]. In the course of this study, the movements of synaptic vesicles inside the axons of cultured neurons were recorded with a resolution of ca. 60 nm. […] However, it is not easy to further improve the properties of the carbopyronine dye Atto 647N and make it more hydrophilic. […] Lower photostability and moderate Φfl-values of cyanine dyes make them inappropriate as lead structures. Short lifetimes of the excited states and presumably low Φfl-values of oxazines (e.g. Evoblue 30), as well as their moderate photostability, make the optimization of their properties not very promising.

[5] = Solubility and polarity of the dyes
[6] = Fluorescence quantum yield, Atto 633 as reference; format: physicochemical; details: Atto 633 as reference (Φfl = 64% in aqueous buffer)
Description: Moreover, intersystem crossing rates (kISC) and rates of the T1→S0 transitions were also found to be the same for both deuterated and undeuterated substances (see ref. to Table 2).

[7] = UV-visible absorption and fluorescence spectra of the dyes of the invention; format: physicochemical
Protocol: UV-visible absorption spectra were recorded on a Varian Cary 4000 UV-Vis spectrophotometer, and fluorescence spectra on a Varian Cary Eclipse fluorescence spectrophotometer. Reactions were carried out upon magnetic stirring in Schlenk flasks equipped with septa or reflux condensers with bubble-counters under argon using a standard manifold with vacuum and argon lines. All NMR spectra are referenced to tetramethylsilane as an internal standard (δ=0 ppm) using the signals of the residual protons of CHCl3 (7.26 ppm) in CDCl3, CHD2OD (3.31 ppm) in CD3OD, HOD (4.75 ppm) in D2O, [D5]acetone (2.04 ppm) in [D6]acetone or [D5]DMSO (2.50 ppm) in [D6]DMSO. Multiplicities of signals are described as follows: s=singlet, br. s=broad singlet, d=doublet, t=triplet, q=quartet, quint=quintet, m=multiplet, mc=centrosymmetrical multiplet. Coupling constants (J) are given in Hz. Multiplicities in the ^13C NMR spectra were determined by APT (Attached Proton Test) measurements. Low resolution mass spectra (electro spray ionization, ESI) were obtained with LCQ and ESI-TOF mass-spectrometers (MICROTOF (focus), Fa. Bruker). The MICROTOF spectrometer equipped with ESI ion source Apollo and direct injector with LC autosampler Agilent RR 1200 was used for obtaining high resolution mass spectra (ESI-HRMS). ESI-HRMS were obtained also on APEX IV spectrometer (Bruker). HPLC system (Knauer): Smartline pump 1000 (2×), UV detector 2500, column thermostat 4000 (25° C.), mixing chamber, injection valve with 20 and 100 μL loop for the analytical and preparative columns, respectively; 6-port-3-channel switching valve; analytical column: Eurospher-100 C18, 5 μm, 250×4 mm, 1.1 mL/min; preparative column: Eurospher-100-5 C18, 5 μm, 250×8 mm, 3.7 mL/min; solvent A: water+0.1% v/v trifluoroacetic acid (TFA); solvent B: MeCN+0.1% v/v TFA; detection at 636 nm (if not stated otherwise). Normal phase analytical TLC was performed on MERCK ready-to-use plates with silica gel 60 (F254) and reversed phase TLC—on RP-18W/UV254 precoated TLC plates (Macherey-Nagel). Preparative TLC was performed on MERCK HPTLC silica gel 60 plates (10×10 cm, layer thickness 0.2 mm). Column chromatography: MERCK silica gel, grade 60, 0.04-0.063 mm or Polygoprep 60-50 C18 (Macherey-Nagel).

[8] = 8 M urea solution; cited from earlier work
[9] = Chemical and storage stability of dyes and reactive derivatives; format: physicochemical
[10] = Excited state lifetime and FCS study under single molecule conditions; format: physicochemical
physchem = details: water

| SMILES | Solubility (solvents) [1] | Stokes shift [2] [nm] | Φfl ([3]; no solvent given in the cell) [%] | τfl ([3]; solvent not given) [ns] | order of the photoresistance [4] | τfl ([3]; H2O) | ε · 10^−5 ([3]; solvent H2O) [M^−1 cm^−1] | λmax (abs.) ([3]; solvent H2O) [nm] | λmax (fl.) ([3]; solvent H2O) [nm] | polarity [5] | solubility in water or aqueous buffers [5] | Φfl in water [6] [%] | also measured |
| --- | --- | --- | --- | --- | --- | --- | --- | --- | --- | --- | --- | --- | --- |
| CC[N+]1=c2cc3c(cc2C(C)CC1(C)C)=C(c1ccccc1C(=O)N(C)CCCC(=O)O)c1cc2c4c(c1C3(C)C)CCCN4CCC2.[O-][Cl+3]([O-])([O-])[O-] (mixture of isomers) [Atto 647N] | DMF, DMSO | 25 | 65 | 3.4 | Atto 633>Atto 647N>Alexa® 647>Alexa® 633>Cy® 5 |  |  |  |  |  |  |  | ε · 10^−5 ([3]; solvent PBS): 1.5 M^−1 cm^−1; λmax (abs.) ([3]; solvent PBS): 644 nm; λmax (fl.) ([3]; solvent PBS): 669 nm |
| CCN(CC)CC.CCN(CC)CC.CN1c2cc3c(cc2-c2sc(S(=O)(=O)O)cc2C1(C)C)C(c1c(F)c(SCC(=O)O)cc(F)c1S(=O)(=O)[O-])=c1cc2c(cc1O3)=[N+](C)C(C)(C)c1cc(S(=O)(=O)O)sc1-2 [Alexa ® 633] | DMSO, H2O^3 | 15 |  | 3.2 | Atto 633>Atto 647N>Alexa® 647>Alexa® 633>Cy® 5 |  |  |  |  |  |  |  | ε · 10^−5 ([3]; solvent MeOH): 1.0 M^−1 cm^−1; λmax (abs.) ([3]; solvent MeOH): 632 nm; λmax (fl.) ([3]; solvent MeOH): 647 nm |
| CC[N+]1=c2cc3c(cc2CCC1)=C(c1ccccc1C(=O)N(C)CCCC(=O)O)c1ccc(N(C)C)cc1C3(C)C [Atto 633] | DMF, DMSO,; also recorded: (H2O) MeCN^2 |  | 64 |  | Atto 633>Atto 647N>Alexa® 647>Alexa® 633>Cy® 5 | 3.2 (H2O) ns | 1.3 | 629 | 657 |  |  |  |  |
| CC1=CC(C)(C)N2CCCc3c4c(cc1c32)C(c1c(F)c(F)c(F)c(F)c1C(=O)[O-])=c1cc2c3c(c1O4)CCC[N+]=3C(C)(C)C=C2C [Compound 4] |  |  |  |  |  |  |  |  |  | non-polar | low solubility in water or aqueous buffers; also recorded: insoluble in water | 63 | Solubility (solvents) [5]: CHCl3, THF; solubility in organic solvents [5]: soluble in most organic solvents; λmax (abs.) ([7]; solvent MeOH): 616 nm; λmax (fl.) ([7]; solvent MeOH): 641 nm; absorption maximum [8]: 630 nm; emission maximum [8]: 655 nm |
| [2H]C1=C(C([2H])([2H])S(=O)(=O)O)c2cc3c(c4c2N(CCC4)C1(C([2H])([2H])[2H])C([2H])([2H])[2H])Oc1c2c4c(cc1=C3c1c(F)c(F)c(F)c(F)c1C(=O)N(C)CCC(=O)O)C(C([2H])([2H])S(=O)(=O)[O-])=C([2H])C(C([2H])([2H])[2H])(C([2H])([2H])[2H])[N+]=4CCC2 [Compound 6D] |  |  |  |  |  |  |  |  |  | polar; also recorded: hydrophilic | soluble in water or aqueous buffers | 78 | stability in methanol or methanol-containing solutions [9]: rapid esterification of the β-alanine fragment with methanol; Stokes shift ([7]; dyes of the invention): 23 nm; ε · 10^−5 ([7]; solvent H2O): 0.92 M^−1 cm^−1; λmax (abs.) ([7]; solvent H2O): 637 nm; λmax (fl.) ([7]; solvent H2O): 660 nm; τfl (excited state lifetime) [10]: 3.67^21 ns; solubility (physchem): > 100 mM |
| CC[N+]1=C(C=CC=CC=C2N(CCCCCC(=O)O)c3ccc(S(=O)(=O)O)cc3C2(C)C)C(C)(C)c2cc(S(=O)(=O)[O-])ccc21 [Cy ® 5] |  |  |  |  | Atto 633>Atto 647N>Alexa® 647>Alexa® 633>Cy® 5 | 0.9 (H2O)^1 ns | 2.5 | 647 | 663 |  |  |  | Φfl ([3]; PBS): 27%; τfl ([3]; PBS): 1 (PBS)^11 ns |
